Source: patent publication US9358267B2, “High purity lipopeptides” (Cubist Pharmaceuticals LLC, priority 2000, dated 2016)

Columns and labels:
[1] = critical micellar concentration (cmc) of daptomycin; type: physicochemical
Excerpt: Micelle formation causes changes in several bulk physical properties of a solution including changes in osmotic pressure, turbidity, electrical conductance, surface tension, co-ion and counterion activities (in the case of ionic, amphipathic molecules), refractive index, UV and NMR spectra, partial molar volume, viscosity, diffusion coefficient and dye solubilization. The cmc can be determined by measuring one or more of these micelle-dependent physical properties as a function of concentration of the amphipathic molecule. The size and shape of micelles can be determined by dynamic laser light scattering, ultracentrifugation, viscosity and/or low-angle X-ray scattering experiments. Micelles can also exist in liquid crystal phases.
In another embodiment of the invention, the pH of a solution comprising a lipopeptide is manipulated to influence the cmc of the lipopeptide. In a preferred embodiment, the lipopeptide is daptomycin or a daptomycin-related molecule, such as those described supra. In an even more preferred embodiment, the lipopeptide is daptomycin. In one embodiment, the pH is manipulated so that the concentration of a lipopeptide is higher than the cmc at one pH and is lower than the cmc at another pH. For instance, for daptomycin, the cmc at pH 4.0 in water at a temperature of 20-25° C. was much lower than at pH 6.0 or 7.5. […]

[2] = tested on: gram-positive organisms (susceptible and resistant strains); assay: in vitro antibacterial activity (MIC); type: cell-based
Experimental: In addition, the minimum inhibitory concentration (MIC) value for daptomycin against susceptible strains is typically 4-fold lower than that of vancomycin. […] Thus, in a preferred embodiment, purified daptomycin, lipopeptide antibiotic, or pharmaceutical compositions thereof are administered according to the methods of this invention to a patient in need of rapidly acting antibiotic therapy.

[3] = size of daptomycin micelles by light scatter (Zetasizer); type: physicochemical; details: for micelle size: 1 mg/mL, pH approximately 4.0 in water, light scatter
Experimental: The daptomycin micelles have an average size of 5.4 nm (54 A).
Daptomycin micelles were produced using daptomycin at a concentration of 1.0 mg/mL in water at pH 4.0 at 25° C. The size of a daptomycin micelle was measured using a Zetasizer™ (Malvern Instruments, Model 3000 HS). The count rate of 36.3, the cell type was a capillary cell, the detection angle (deg) was 90°, and the wavelength (nm) was 633.

CCCCCCCCCC(=O)N[C@@H](Cc1c[nH]c2ccccc12)C(=O)N[C@H](CC(N)=O)C(=O)N[C@@H](CC(=O)O)C(=O)N[C@@H]1C(=O)NCC(=O)N[C@@H](CCCN)C(=O)N[C@@H](CC(=O)O)C(=O)N[C@H](C)C(=O)N[C@@H](CC(=O)O)C(=O)NCC(=O)N[C@H](CO)C(=O)N[C@@H]([C@H](C)CC(=O)O)C(=O)N[C@@H](CC(=O)c2ccccc2N)C(=O)O[C@@H]1C [daptomycin]
aggregation state (monomeric or micellar) ([1]; 150 mg/mL daptomycin, pH 6.5, 150 mM to 300 mM NaCl, 4° C.): monomeric | critical micellar concentration (cmc) ([1]; pH 4.0 in water, 20-25° C.): approximately 400 μg/mL | antibacterial activity against classically resistant strains relative to classically susceptible strains ([2]; in vitro experiments): comparable | MIC, fold lower than that of vancomycin ([2]; susceptible strains): ~4 fold | diameter of the micelle ([3]; 1.0 mg/mL in water, pH 4.0, 25° C., Zetasizer): 54 A | micelle size [3]: 5.4 nm | micelle size ([3]; listed as Daptomycin): approximately 5.4 nm
